Laboratory results: ChEMBL document CHEMBL3217528, “Bicyclic imidazole-4-one derivatives: a new class of antagonists for the orphan G protein-coupled receptors GPR18 and GPR55” (Medchemcomm, 2014)
Activity calls are given as the source filed them. The rule behind the calls is not given here.

Assays:
Cannabinoid receptor 2 [1] = molecular target: T1, Cannabinoid receptor 2 (Homo sapiens, UniProt P34972); experiment: Displacement of [3H]CP55,940 from human recombinant CB2 receptor expressed in HEK293 cells at 10 uM; format: cell-based
T1 sequence (P34972 whole entry, the tested form may be a part): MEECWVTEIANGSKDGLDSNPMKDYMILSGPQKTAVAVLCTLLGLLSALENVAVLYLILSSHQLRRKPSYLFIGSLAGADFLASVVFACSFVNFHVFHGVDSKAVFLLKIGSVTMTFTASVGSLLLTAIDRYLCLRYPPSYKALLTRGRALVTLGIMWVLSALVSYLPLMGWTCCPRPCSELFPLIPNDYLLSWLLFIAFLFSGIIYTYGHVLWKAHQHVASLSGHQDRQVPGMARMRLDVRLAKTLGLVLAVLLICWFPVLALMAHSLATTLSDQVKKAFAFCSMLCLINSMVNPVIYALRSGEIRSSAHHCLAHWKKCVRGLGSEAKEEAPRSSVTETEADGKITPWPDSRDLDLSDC

[2] = molecular target: T2, N-arachidonyl glycine receptor (Homo sapiens, UniProt Q14330); experiment: Antagonist activity against human GPR18 expressed in CHO cells assessed as reduction in delta9-THC-induced beta-arrestin recruitment by beta-galactosidase enzyme fragment complementation method; format: cell-based
T2 sequence (Q14330 whole entry): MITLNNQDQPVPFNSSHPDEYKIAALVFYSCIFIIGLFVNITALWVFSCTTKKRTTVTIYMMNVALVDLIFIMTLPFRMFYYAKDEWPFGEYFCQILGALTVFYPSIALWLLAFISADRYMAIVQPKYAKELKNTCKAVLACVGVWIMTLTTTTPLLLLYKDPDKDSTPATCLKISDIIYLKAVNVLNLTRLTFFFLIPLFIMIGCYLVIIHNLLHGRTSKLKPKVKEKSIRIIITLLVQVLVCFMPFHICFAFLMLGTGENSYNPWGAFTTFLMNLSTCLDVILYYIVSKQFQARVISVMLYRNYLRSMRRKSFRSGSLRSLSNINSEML

[3] = molecular target: T3, G-protein coupled receptor 55 (Homo sapiens, UniProt Q9Y2T6); experiment: Agonist activity at human GPR55 expressed in CHO cells assessed as induction of LPI-induced beta-arrestin recruitment by beta-galactosidase enzyme fragment complementation method; format: cell-based
T3 sequence (Q9Y2T6 whole entry, the tested form may be a part): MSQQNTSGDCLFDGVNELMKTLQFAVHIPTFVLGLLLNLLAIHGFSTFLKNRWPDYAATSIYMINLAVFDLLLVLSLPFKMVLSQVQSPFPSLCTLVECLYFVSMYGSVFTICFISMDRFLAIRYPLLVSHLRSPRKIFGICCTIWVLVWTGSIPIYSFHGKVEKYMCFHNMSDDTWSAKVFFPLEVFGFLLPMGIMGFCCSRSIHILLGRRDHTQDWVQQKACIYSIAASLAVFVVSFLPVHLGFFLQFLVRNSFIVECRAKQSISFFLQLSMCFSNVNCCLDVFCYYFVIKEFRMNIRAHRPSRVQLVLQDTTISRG

Cannabinoid receptor 1 [4] = molecular target: T4, Cannabinoid receptor 1 (Homo sapiens, UniProt P21554); experiment: Displacement of [3H]CP55,940 from human recombinant CB1 receptor expressed in CHO-K1 cells at 10 uM; format: cell-based
T4 sequence (P21554 whole entry): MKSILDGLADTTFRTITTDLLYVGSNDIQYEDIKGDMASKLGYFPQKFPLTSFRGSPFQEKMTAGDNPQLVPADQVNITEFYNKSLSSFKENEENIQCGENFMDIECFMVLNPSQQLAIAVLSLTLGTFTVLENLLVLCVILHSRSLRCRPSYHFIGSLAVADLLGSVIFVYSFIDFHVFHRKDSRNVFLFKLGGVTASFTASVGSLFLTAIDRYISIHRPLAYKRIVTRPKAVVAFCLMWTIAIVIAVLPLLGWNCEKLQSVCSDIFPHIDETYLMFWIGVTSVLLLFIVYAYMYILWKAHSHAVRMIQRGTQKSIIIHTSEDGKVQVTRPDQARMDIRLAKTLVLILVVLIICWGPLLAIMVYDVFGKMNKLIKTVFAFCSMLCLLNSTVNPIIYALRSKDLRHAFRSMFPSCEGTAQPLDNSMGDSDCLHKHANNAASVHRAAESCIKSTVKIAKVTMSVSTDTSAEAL

Cannabinoid receptor 1 [5] = molecular target: T4, Cannabinoid receptor 1; experiment: Displacement of [3H]CP55,940 from human recombinant CB1 receptor expressed in CHO-K1 cells; format: cell-based
Cannabinoid receptor 2 [6] = molecular target: T1, Cannabinoid receptor 2; experiment: Displacement of [3H]CP55,940 from human recombinant CB2 receptor expressed in HEK293 cells; format: cell-based
[7] = molecular target: T5, N-arachidonyl glycine receptor (Homo sapiens) (UniProt Q14330); experiment: Antagonist activity against human GPR18 expressed in CHO cells assessed as reduction in delta9-THC-induced beta-arrestin recruitment at 10 uM by beta-galactosidase enzyme fragment complementation method; format: cell-based
T5 sequence (whole entry): T2 sequence (Q14330 whole entry)

[8] = molecular target: T2, N-arachidonyl glycine receptor; experiment: Agonist activity at human GPR18 expressed in […] cells by MAP kinase assay; format: cell-based
[9] = molecular target: T3, G-protein coupled receptor 55; experiment: Agonist activity at human GPR55 expressed in CHO cells assessed as induction of LPI-induced beta-arrestin recruitment by beta-galactosidase enzyme fragment complementation method relative to LPI; format: cell-based; parameters: concentration or dose not given beside the values
[10] = molecular target: T3, G-protein coupled receptor 55; experiment: Antagonist activity against human GPR55 expressed in CHO cells assessed as reduction in LPI-induced beta-arrestin recruitment by beta-galactosidase enzyme fragment complementation method; format: cell-based
Rattus norvegicus = species on record: Rattus norvegicus; experiment: Displacement of [3H]diazepam from GABAA receptor in rat brain cortical membranes at 10 uM; format: cell membranes
[11] = molecular target: Cannabinoid receptor 1 (Rattus norvegicus) (UniProt P20272); experiment: Displacement of [3H]CP55,940 from CB1 receptor in rat brain cortical membranes at 10 uM; format: cell membranes
Sequence of Cannabinoid receptor 1 (Rattus norvegicus) (P20272 whole entry): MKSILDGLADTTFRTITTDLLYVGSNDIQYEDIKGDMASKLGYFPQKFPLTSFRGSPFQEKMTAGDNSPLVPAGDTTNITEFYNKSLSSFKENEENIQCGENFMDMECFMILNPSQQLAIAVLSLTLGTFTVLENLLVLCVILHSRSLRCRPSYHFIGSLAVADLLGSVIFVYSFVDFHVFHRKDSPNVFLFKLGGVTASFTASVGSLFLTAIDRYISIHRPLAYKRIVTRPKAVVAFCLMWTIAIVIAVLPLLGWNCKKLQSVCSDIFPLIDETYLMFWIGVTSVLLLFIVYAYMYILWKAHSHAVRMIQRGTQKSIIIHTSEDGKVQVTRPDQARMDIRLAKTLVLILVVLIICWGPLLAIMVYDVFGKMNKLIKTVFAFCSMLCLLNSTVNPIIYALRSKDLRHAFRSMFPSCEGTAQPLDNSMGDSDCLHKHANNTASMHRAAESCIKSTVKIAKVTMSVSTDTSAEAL

[12] = Displacement of [3H]diazepam from GABAA receptor in rat brain cortical membranes; format: cell membranes
[13] = molecular target: T3, G-protein coupled receptor 55; experiment: Antagonist activity against human GPR55 expressed in CHO cells assessed as reduction in LPI-induced beta-arrestin recruitment at 10 uM by beta-galactosidase enzyme fragment complementation method; format: cell-based
Cannabinoid receptor 1 [14] = molecular target: Cannabinoid receptor 1 (Rattus norvegicus, UniProt P20272); experiment: Displacement of [3H]CP55,940 from CB1 receptor in rat brain cortical membranes; format: cell membranes
Sequence of Cannabinoid receptor 1 (Rattus norvegicus, UniProt P20272) (P20272 whole entry, the tested form may be a part): as the sequence (P20272 whole entry) above

[15] = molecular target: T5, N-arachidonyl glycine receptor (Homo sapiens); experiment: Agonist activity at human GPR18 expressed in CHO cells assessed as induction of beta-arrestin recruitment by beta-galactosidase enzyme fragment complementation method relative to delta9-THC; format: cell-based; parameters: concentration or dose not given beside the values
[16] = molecular target: T6, G-protein coupled receptor 35 (Homo sapiens, UniProt Q9HC97); experiment: Antagonist activity at human GPR35 assessed as reduction of zaprinast-induced beta-arrestin recruitment by beta-galactosidase enzyme fragment complementation method
T6 sequence (Q9HC97 whole entry, the tested form may be a part): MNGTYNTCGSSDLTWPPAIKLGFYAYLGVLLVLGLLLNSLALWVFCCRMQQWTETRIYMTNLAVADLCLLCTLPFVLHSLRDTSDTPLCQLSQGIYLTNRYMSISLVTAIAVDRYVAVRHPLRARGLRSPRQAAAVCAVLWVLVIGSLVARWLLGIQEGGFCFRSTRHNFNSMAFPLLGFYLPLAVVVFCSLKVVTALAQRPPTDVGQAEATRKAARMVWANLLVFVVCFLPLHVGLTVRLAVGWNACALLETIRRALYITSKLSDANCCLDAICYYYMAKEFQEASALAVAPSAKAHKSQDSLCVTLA

[17] = molecular target: T6, G-protein coupled receptor 35; experiment: Antagonist activity at human GPR35 assessed as reduction of zaprinast-induced beta-arrestin recruitment by beta-galactosidase enzyme fragment complementation method relative to untreated control; parameters: concentration or dose not given beside the values; details: concentration not given here
[18] = molecular target: T3, G-protein coupled receptor 55; experiment: Allosteric antagonist activity against human GPR55 expressed in CHO cells assessed as induction of rightward shift of concentration response curve of LPI-induced beta-arrestin recruitment at 10 uM by beta-galactosidase enzyme fragment complementation method; format: cell-based
[19] = molecular target: T6, G-protein coupled receptor 35; experiment: Agonist activity at human GPR35 assessed as induction of beta-arrestin recruitment by beta-galactosidase enzyme fragment complementation method
[20] = molecular target: T6, G-protein coupled receptor 35; experiment: Agonist activity at human GPR35 assessed as induction of beta-arrestin recruitment by beta-galactosidase enzyme fragment complementation method relative to zaprinast; parameters: concentration or dose not given beside the values
Cannabinoid receptor 1 [21] = molecular target: T4, Cannabinoid receptor 1; experiment: Agonist activity at human recombinant CB1 receptor expressed in CHO-K1 cell membranes assessed effect on forskolin-induced cAMP accumulation at 10 uM; format: functional, cell-based
[22] = molecular target: T2, N-arachidonyl glycine receptor; experiment: Agonist activity at human GPR18 expressed in CHO cells assessed as induction of beta-arrestin recruitment by beta-galactosidase enzyme fragment complementation method; format: cell-based
Cannabinoid receptor 2 [23] = molecular target: T1, Cannabinoid receptor 2; experiment: Agonist activity at human recombinant CB2 receptor expressed in CHO-K1 cell membranes assessed effect on forskolin-induced cAMP accumulation at 10 uM; format: functional, cell-based
Cannabinoid receptor 2 [24] = molecular target: T1, Cannabinoid receptor 2; experiment: Intrinsic activity at human recombinant CB2 receptor expressed in HEK293 cell membranes assessed as stimulation of [35S]GTPgammaS binding at 10 uM by liquid scintillation counting method relative to CP55,940; format: functional
[25] = molecular target: Cannabinoid receptor 1 (Rattus norvegicus) (UniProt P20272); experiment: Intrinsic activity at CB1 receptor in rat brain cortical membranes assessed as stimulation of [35S]GTPgammaS binding at 10 uM by liquid scintillation counting method relative to CP55,940; format: functional, cell membranes
Cannabinoid receptor 1 [26] = molecular target: T4, Cannabinoid receptor 1; experiment: Intrinsic activity at human recombinant CB1 receptor expressed in HEK293 cell membranes assessed as stimulation of [35S]GTPgammaS binding at 10 uM by liquid scintillation counting method relative to CP55,940; format: functional
[27] = molecular target: T3, G-protein coupled receptor 55; experiment: Inverse agonist activity against human GPR55 expressed in CHO cells assessed as reduction in LPI-induced beta-arrestin recruitment at 10 uM by beta-galactosidase enzyme fragment complementation method; format: cell-based
[28] = molecular target: T3, G-protein coupled receptor 55; experiment: Inverse agonist activity against human GPR55 expressed in CHO cells assessed as reduction in LPI-induced beta-arrestin recruitment at 30 uM by beta-galactosidase enzyme fragment complementation method; format: cell-based
[29] = molecular target: T3, G-protein coupled receptor 55; experiment: Agonist activity at human GPR55 expressed in HEK293 cells assessed as increase in oscillation Ca2+ transients by fura-2 dye based fluorescence analysis; format: functional, cell-based

Structure (SMILES)	inhibition (Cannabinoid receptor 2 [1]) [%]	IC50 [2] [µM]	EC50 [3] [µM]	inhibition (Cannabinoid receptor 1 [4]) [%]	Ki (Cannabinoid receptor 1 [5]) [µM]	Ki (Cannabinoid receptor 2 [6]) [µM]	inhibition [7] [%]	Activity [9] [%]	IC50 [10] [µM]	Ki [12] [µM]	Ki (Cannabinoid receptor 1 [14]) [µM]	Activity [15] [%]	Allosteric antagonist activity [18]	other results
CCCCC/C=C\C/C=C\C/C=C\C/C=C\CCCC(=O)O[C@H](CO)COP(=O)(O)O[C@@H]1[C@@H](O)[C@H](O)[C@@H](O)[C@H](O)[C@@H]1O	0	> 10	1	0	> 10	> 10	15	–	–	–	–	–	–	–
CCCCCc1cc(O)c2c(c1)OC(C)(C)[C@@H]1CCC(C)=C[C@@H]21 [DRONABINOL]	–	–	14.2	–	–	–	–	–	–	–	–	–	–	EC50 [8]: 0.96 µM
O=C1/C(=C/c2cccc(Cl)c2)N=C2SCCCN12	2	> 10	–	30	> 10	> 10	14	9	≥ 10	10	> 10	0	–	inhibition (Rattus norvegicus): 57%; inhibition [11]: 6%; inhibition [13]: 42%
O=C1/C(=C/c2ccccc2Cl)N=C2SCCCN12	21	> 10	–	0	> 10	> 10	6	27	5.09	4.15	> 10	20	Active	IC50 [16]: ≥ 10 µM; inhibition [11]: 5%; inhibition [17]: 49%; EC50 [19]: > 10 µM; Activity [20]: -22%
CCCCCCC(C)(C)c1ccc([C@@H]2C[C@H](O)CC[C@H]2CCCO)c(O)c1 [CP-55940]	–	–	1.61	–	–	–	–	–	–	–	–	–	–	Activity (Cannabinoid receptor 1 [21]): Active; EC50 [22]: 5.99 µM; Activity (Cannabinoid receptor 2 [23]): Active
O=C1/C(=C/c2cccc(OCc3ccc(Cl)cc3)c2)N=C2SCCCCN12	–	> 10	10.7	–	0.25	4.15	31	70	–	> 10	0.82	0	–	Intrinsic activity (Cannabinoid receptor 2 [24]): -59%; IC50 [16]: > 10 µM; inhibition [17]: 1%; EC50 [19]: > 10 µM; Activity (Cannabinoid receptor 1 [21]): inactive; Intrinsic activity [25]: -15%; Activity [20]: 6%; Intrinsic activity (Cannabinoid receptor 1 [26]): -40%
O=C1/C(=C/c2cccc(Cl)c2Cl)N=C2SCCCN12	40	> 10	–	12	> 10	> 10	0	3	6.91	–	> 10	17	Active	inhibition [11]: 6%
O=C1/C(=C/c2cccc(F)c2F)N=C2SCCCN12	0	> 10	–	7	> 10	> 10	3	0	3.15	> 10	–	4	Active	IC50 [16]: > 10 µM; inhibition (Rattus norvegicus): 24%; inhibition [17]: 17%; inhibition [27]: Active; EC50 [19]: > 10 µM; Activity [20]: -4%
Cc1c(C(=O)NN2CCCCC2)nn(-c2ccc(Cl)cc2Cl)c1-c1ccc(Cl)cc1 [RIMONABANT]	–	–	–	–	–	–	–	–	–	–	–	–	–	EC50 [22]: 10.1 µM
O=C1/C(=C/c2ccc(F)cc2F)N=C2SCCCN12	0	> 10	–	13	> 10	> 10	6	0	3.46	> 10	–	11	Active	inhibition [28]: Active; inhibition (Rattus norvegicus): 34%
Cc1c(C(=O)NN2CCOCC2)nn(-c2ccc(Cl)cc2Cl)c1-c1ccc(I)cc1	–	–	–	–	–	–	–	–	–	–	–	–	–	Activity (Cannabinoid receptor 1 [21]): inactive; Intrinsic activity [25]: -42%; EC50 [29]: 13.6 µM; Intrinsic activity (Cannabinoid receptor 1 [26]): -80%; Activity (Cannabinoid receptor 2 [23]): inactive
Cc1c(C(=O)NN2CCCCC2)nn(-c2ccc(Cl)cc2Cl)c1-c1ccc(I)cc1	–	–	–	–	–	–	–	–	–	–	–	–	–	EC50 [29]: 0.63 µM
